Assay: xn = mol fraction of the nth substance listed
Conditions: 100 kPa

CN(C)C=O + CC[n+]1ccn(C)c1.O=S(=O)([O-])C(F)(F)F
x1 = 1
Conditions	speed of sound [m/s]	viscosity [mPa·s]
303.15 K	1449.1	0.77
308.15 K	1435.2	0.72
313.15 K	1421.2	0.69
318.15 K	1407.2	0.65
323.15 K	1393.6	0.62

OCCO + CC[n+]1ccn(C)c1.O=S(=O)([O-])C(F)(F)F
x1 = 1
Conditions	speed of sound [m/s]	viscosity [mPa·s]
298.15 K	1655	16.39
303.15 K	1643.2	13.49
313.15 K	1619.7	9.34
323.15 K	1596.1	6.75

CC[n+]1ccn(C)c1.O=S(=O)([O-])C(F)(F)F + CN(C)C=O
Conditions	speed of sound [m/s]	viscosity [mPa·s]
298.15 K, x2 = 0.0917	1438.8	36.96
298.15 K, x2 = 0.2995	1444	20.94
298.15 K, x2 = 0.406	1446	14.56
298.15 K, x2 = 0.5094	1448.4	8.77
298.15 K, x2 = 0.5976	1450.6	6.17
298.15 K, x2 = 0.6947	1453.4	3.45
298.15 K, x2 = 0.7981	1457.5	2.59
298.15 K, x2 = 0.8957	1460.7	1.54
303.15 K, x2 = 0.0917	1427.6	31.13
303.15 K, x2 = 0.1933	1428.8	24.16
303.15 K, x2 = 0.2995	1430.7	17.86
303.15 K, x2 = 0.5094	1434.6	7.75
303.15 K, x2 = 0.5976	1436.5	5.52
303.15 K, x2 = 0.6947	1439.7	3.21
303.15 K, x2 = 0.7981	1443.5	2.38
303.15 K, x2 = 0.8957	1446.8	1.44
308.15 K, x2 = 0.0917	1416	26.42
308.15 K, x2 = 0.1933	1417.8	20.62
308.15 K, x2 = 0.2995	1419.1	15.36
308.15 K, x2 = 0.5094	1422.7	6.9
308.15 K, x2 = 0.5976	1424.4	4.98
308.15 K, x2 = 0.6947	1426.9	2.99
308.15 K, x2 = 0.7981	1429.7	2.19
308.15 K, x2 = 0.8957	1432.8	1.34
313.15 K, x2 = 0.0917	1404.6	22.67
313.15 K, x2 = 0.1933	1406.5	17.78
313.15 K, x2 = 0.2995	1408	13.34
313.15 K, x2 = 0.406	1409.7	9.57
313.15 K, x2 = 0.5094	1411	6.18
313.15 K, x2 = 0.6947	1414.6	2.78
313.15 K, x2 = 0.8957	1419.2	1.25
318.15 K, x2 = 0.406	1398.7	8.46
318.15 K, x2 = 0.5094	1399.7	5.57
318.15 K, x2 = 0.5976	1400.4	4.1
318.15 K, x2 = 0.7981	1403.5	1.88
318.15 K, x2 = 0.8957	1405.3	1.18
323.15 K, x2 = 0.0917	1382.3	17.12
323.15 K, x2 = 0.1933	1384	13.56
323.15 K, x2 = 0.2995	1386	10.31
323.15 K, x2 = 0.406	1387.4	7.53
323.15 K, x2 = 0.5094	1388	5.05
323.15 K, x2 = 0.5976	1388.9	3.75
323.15 K, x2 = 0.7981	1390.6	1.75
323.15 K, x2 = 0.8957	1392.1	1.11

CC[n+]1ccn(C)c1.O=S(=O)([O-])C(F)(F)F + OCCO
Conditions	speed of sound [m/s]	viscosity [mPa·s]
298.15 K, x2 = 0.0943	1446	36.77
298.15 K, x2 = 0.2021	1453.2	29.22
298.15 K, x2 = 0.2937	1457.1	24.13
298.15 K, x2 = 0.408	1464.6	20.68
298.15 K, x2 = 0.5013	1473.4	18.72
298.15 K, x2 = 0.6019	1488.5	17.52
298.15 K, x2 = 0.6917	1510.9	16.97
298.15 K, x2 = 0.8964	1586.6	16.51
303.15 K, x2 = 0.2021	1442.1	24.77
303.15 K, x2 = 0.2937	1445.9	20.6
303.15 K, x2 = 0.408	1453.3	17.93
303.15 K, x2 = 0.5013	1462.1	16.38
303.15 K, x2 = 0.6019	1477.2	15.41
303.15 K, x2 = 0.6917	1499.5	14.89
303.15 K, x2 = 0.798	1532.6	14.39
303.15 K, x2 = 0.8964	1575.1	13.74
308.15 K, x2 = 0.0943	1423.9	26.23
308.15 K, x2 = 0.2021	1430.9	21.17
308.15 K, x2 = 0.2937	1434.8	17.74
308.15 K, x2 = 0.408	1442.2	15.7
308.15 K, x2 = 0.5013	1451	14.49
308.15 K, x2 = 0.6917	1488.2	13.23
308.15 K, x2 = 0.798	1521.5	12.63
313.15 K, x2 = 0.0943	1412.8	22.47
313.15 K, x2 = 0.2021	1419.9	18.26
313.15 K, x2 = 0.2937	1423.8	15.41
313.15 K, x2 = 0.5013	1439.9	12.93
313.15 K, x2 = 0.6019	1454.8	12.31
313.15 K, x2 = 0.6917	1477	11.88
313.15 K, x2 = 0.798	1509.9	11.22
313.15 K, x2 = 0.8964	1552.1	10.22
318.15 K, x2 = 0.2021	1409.1	15.91
318.15 K, x2 = 0.2937	1412.9	13.52
318.15 K, x2 = 0.408	1420.2	12.38
318.15 K, x2 = 0.5013	1428.8	11.66
318.15 K, x2 = 0.6019	1443.7	11.17
318.15 K, x2 = 0.6917	1465.7	10.76
318.15 K, x2 = 0.798	1498.5	10.07
318.15 K, x2 = 0.8964	1540.6	8.97
323.15 K, x2 = 0.2937	1402	11.94
323.15 K, x2 = 0.5013	1417.9	10.58
323.15 K, x2 = 0.6019	1432.7	10.2
323.15 K, x2 = 0.6917	1454.6	9.84
323.15 K, x2 = 0.798	1487.2	9.13
323.15 K, x2 = 0.8964	1529.1	7.95

Source: a compilation of properties of binary mixtures (doi:10.1016/j.molliq.2018.09.007)
